# Values quoted from earlier work, collected in patent publication US20050070607A1, “N-acetylcysteine compositions and methods for the treatment and prevention of cysteine/glutathione deficiency in diseases and conditions” (priority 2003, published 2005).
# Where two headings read alike, the source gives them in different places.
# Key:
# [1] = system: subjects with acetaminophen-induced fulminant hepatic failure; details: late presentation; survival, cerebral edema, hypotension; IV 150 mg/kg for 15 min; 50 mg/kg for 4 h; 100 mg/kg over 16 h; n 50; 21 days; Keays 1991[2]
# [2] = system: colonic crypt epithelium of human volunteers who previously had adenomatous polyps; details: Colon cancer; proliferative index; 800 mg NAC daily po; n 64; 12 weeks; Estensen 1999[55]
# [3] = system: Malnourished children; details: GSH synthesis rate and concentration; 0.5 mmol per kg per day; placebo alanine; n 32; 50 days; Badaloo 2002[54]
# [4] = system: Stable angina and nitrate tolerance
# [5] = system: patients with unstable angina pectoris
# [6] = system: Cardiac bypass
# [7] = system: Contrast-induced nephropathy (CIN)
# [8] = system: hemodialysis patients
# [9] = system: non-insulin dependent diabetic (NIDDM) patients
# [10] = system: Sickle Cell Disease/Vaso-occlusive disease; details: 2,400 mg daily, 12 months, Pace 2003[18]
# [11] = system: Cystic Fibrosis (CF)
# [12] = system: COPD subjects
# [13] = system: Smoking
# [14] = system: premature infants with chronic lung disease; details: intratracheal NAC 5%; total airway resistance, cyanotic spells; n 22; 24 hours; Bibi 1992[203]
# [15] = system: subjects classified as slow clearers; details: .6 g oral daily, 60 days, Todisco 1985[38]
# [16] = system: septic shock patients
# [17] = system: Alzheimer's Disease; details: MMSE, ADL and other psychometric tests; 50 mg/kg/day; n 47; 24 weeks; Adair 2001[60]
# [18] = system: Exercise
# [19] = system: otitis media with effusion; details: instillation into one ear; recurrence, VT re-insertion, time until VT extrusion; 0.05 ml Mucomyst solution at 1, 3 and 7 days; n 75; 39 months; Ovesen 2000[53]
# [20] = system: Sjogren's syndrome; details: ocular soreness, ocular irritability, halitosis, daytime thirst; 200 mg daily; n 26; 6 weeks; Walters 1986[56]
# [21] = system: Chronic blepharitis; details: tear film quality (FBUT, mucous fern pattern); 300 mg/day po; n 40; 4 months; Yalcin 2002[57]
# [22] = system: plaque formation; details: 2 weeks, Bowles 1985[61]
# [23] = compared with the stable cysteine disulfide
structure (smiles),measurement,setting,value
"CC(=O)N[C@@H](CS)C(=O)O [NAC, N-acetylcysteine]",Treatment effect,[1],Beneficial
same,Treatment effect,[2],Beneficial
same,Treatment effect,[3],Beneficial
same,Beneficial effects,"[4]; NAC + ISDN infusion, tolerance to antianginal effects, 2 g IV bolus, n 10, 30 hours, Boesgaard 1992[14]",Beneficial
same,Beneficial effects,"[4]; NAC + isosorbide dinitrate (ISDN), ST segment depression, 2400 mg daily po, n 7, 8 days, Boesgaard 1991[13]",Beneficial
same,Beneficial effects,"[4]; NAC + isosorbide-5-mononitrate, total exercise time, 4800 mg po, n 10, 24 hours, Svendsen 1989[12]",Beneficial
same,Beneficial effects,"[5]; NAC + nitroglycerin, incidence of acute myocardial infarction, 5 g IV, n 46, 6 hours, Horowitz 1988[175,176]",Beneficial
same,Beneficial effects,"[5]; nitroglycerin + NAC with conventional therapy, outcome events, 600 mg po, n 200, 4 months, Ardissino 1997[177]",Beneficial
same,apoptosis induction by cardioplegic arrest in left ventricular cardiac myocytes,"[6]; 100 mg/kg followed by infusion 20 mg/kg, n 36, Fischer 2004[270]",can effectively ne prevented by NAC.
same,Beneficial effects,"[6]; oxidative burst response of peripheral neutrophils, 100 mg/kg bolus then 20 mg/kg continuous IV, n 12, 24 hours, Andersen 1995[16]",Beneficial
same,RR (incidence of contrast-induced nephropathy),"[7]; 400 mg PO bid for 2 days, n 121, Shyu 2002[8]",contrast-induced nephropathy (RR 0.13)
same,RR (incidence of post-catheterization nephropathy),"[7]; 600 mg PO bid, n 54, Diaz-Sandoval 2002[7]",0.21) in patients with stable chronic renal
same,"relative risk, RR (reduction in renal function induced by iopromide)","[7]; 600 mg PO bid, n 83, Tepel[3-5]","contrast agent (relative risk, RR 0.10)"
same,reduction in the incidence of acute renal failure,"[7]; 83 patients with baseline renal impairment, computed tomography with nonionic low-osmolality contrast agent, Tepel[3-5]",90%
same,Beneficial effects,"[7]; chronic renal insufficiency, iopromide, 600 mg PO bid with hydration, n 83, 2 days, Tepel 2000, 2001, 2003[3-5]",Beneficial
same,incidence of CIN by 48 hours,"[7]; control 6.4%, 1500 mg for 4 doses, Oldemeyer 2003[188]","both groups was low (NAC 8.2%, control"
same,incidence of CIN at 48 hours,"[7]; control 12%, 600 mg 4 times daily, Boccalandro 2003[187]","hours (NAC, 13%; control 12%) after"
same,RR (contrast-induced deterioration in renal function),"[7]; coronary angiographic procedures, 600 mg PO bid, n 200, Kay 2003[6]","adverse effects (RR 0.32). Kay, 2003[6]"
same,Beneficial effects,"[7]; moderate chronic renal insufficiency, coronary angiographic procedures, 600 mg PO bid, n 200, 3 days, Kay 2003[6]",Beneficial
same,Beneficial effects,"[7]; oxidative stress-mediated proximal tubular injury, 1200 mg daily, n 24, 4 days, Drager 2004[271]",Beneficial
same,Beneficial effects,"[7]; serum creatinine > 1.2 mg/dL, elective coronary angiography, creatinine clearance at 24 and 96 hours, 1000 mg daily, n 49, 4 days, Efarti 2003[9]",Beneficial
same,Beneficial effects,"[7]; serum creatinine >= 1.5 mg/dL, elective cardiac catheterization, 600 mg 5 doses, n 43, 3 days, MacNeil 2003[10]",Beneficial
same,Beneficial effects,"[7]; stable chronic renal insufficiency, coronary angiography, 400 mg PO bid for 2 days, n 121, 7 days, Shyu 2002[8]",Beneficial
same,Beneficial effects,"[7]; stable chronic renal insufficiency, elective cardiac catheterization, 600 mg PO bid, n 54, 2 days, Diaz-Sandoval 2002[7]",Beneficial
same,incidence of contrast nephropathy,"[7]; subset receiving <140 mL contrast agent, from 8.5%, p=0.02, 183 patients [190]",0%
same,development of CIN by 72 hours,"[7]; vs 32.2% placebo, P = 0.046, 600 mg 5 doses, MacNeil 2003[10]","catheterization (4.8% vs 32.2%, P ="
same,"RR, composite cardiovascular outcome","[8]; 134 chronic hemodialysis patients, p=0.03, [17]",0.60
same,Beneficial effects,"[8]; Homocysteine in hemodialysis, intravenous 5 g in 5% glucose solution, n 20, 1 session, Scholze 2004[273]",Beneficial
same,serum oxidized LDL values at the end of the study,[8]; chronic hemodialysis patients [17],much lower
same,Plasma homocysteine level change,"[8]; chronic oral 1200 mg BID, 4 weeks, placebo −8%, P = 0.07, Friedman 2003[276]",chronic oral NAC therapy (−19%) but did
same,Beneficial effects,"[8]; composite cardiovascular end points, 600 mg bid, n 134, 1-24 months, median 14.5 months, Tepel 2003[17]",Beneficial
same,Plasma homocysteine level after hemodialysis,"[8]; control group 58 +/− 22%, P < 0.01, intravenous 5 g, Scholze 2004[273]",homocysteine levels decreased to 12 +/− 7% of predialysis level (mean +
same,Beneficial effects,"[8]; end-stage renal failure, plasma homocysteine, pulse pressure, endothelial function, 5 g in 5% glucose, n 20, Scholze 2004[273]",Beneficial
same,Beneficial effects,"[9]; erythrocyte GSH, GSH:GSSG ratio, plasma soluble VCAM-1, 1200 mg/day po, n 15, 1 month, De Mattia 1998[21]",Beneficial
same,erythrocyte GSH concentration and rate of its synthesis,"[9]; type 2 diabetics, two weeks of dietary supplementation, Jahoor ongoing study [197]",significant increases
same,vaso-occlusive episodes,[10]; decreased from 0.03,occlusive episodes (0.03 to 0.006 episodes episodes per person-days
same,Beneficial effects,"[10]; dense cell formation, glutathione levels, vaso-occlusive episodes, n 21",Beneficial
same,Beneficial effects,"[11]; CF and primary ciliary dyskinesia, lung function, 600 mg < 30 kg or 800 mg > 30 kg per day po, n 54, 3 months, Stafanger 1988[40]",Beneficial
same,Beneficial effects,"[11]; air trapping and FEV1, NAC or Ambroxol 200 mg 3 times daily, n 36, 12 weeks, Ratjen 1985[274]",Beneficial
same,Beneficial effects,"[12]; hydrogen peroxide formation in the airways, oral 600 mg fizzy, n 44, 12 months, Kasielski 2001[210]",Beneficial
same,Beneficial effects,"[12]; mucus viscosity, effective cough, clinical symptoms, 600 mg, n 60, 10 days, Verstraeten 1979[39]",Beneficial
same,Beneficial effects,"[12]; quadriceps endurance, exercise induced oxidative stress, 1800 mg for 4 days and 600 mg the day of the test, n 9, Koechlin 2004[278]",Beneficial
same,Beneficial effects,"[13]; formation of lipophilic-DNA adducts, 1200 mg/day po, n 41, 6 months, VanShooten 2002[35]",Beneficial
same,Beneficial effects,"[13]; mucus clearance, 600 mg/day, n 12, 30 days, Olivieri 1985[36]",Beneficial
same,Beneficial effects,[14],Adverse
same,Beneficial effects,[15]; n 161,Beneficial
same,improvement in mucociliary clearance,[15]; slow clearers,a 35% improvement in mucusalary
same,Beneficial effects,"[16]; Cardiac performance, MAP, cardiac index, left ventricular stroke work index, early administration 150 mg/kg over 15 min, 50 mg/kg over next 4 hrs, 100 mg/kg over next 24 hrs, n 20, 48 hours, Peake 1996[281]",Adverse
same,Beneficial effects,"[16]; hepatosplanchnic flow and function, 150 mg/kg over 15 min before 12.5 mg/kg/hr for 90 min, n 60, 2 hours, Rank 2000[44]",Beneficial
same,Beneficial effects,"[16]; respiratory function, ICU stay, IL-8, 150 mg/kg bolus then 50 mg/kg over 4 hr IV, n 22, 24 hours, Spapen 1998[43]",Beneficial
same,Beneficial effects,"[16]; tissue oxygenation, survival of responders, 150 mg/kg for 15 min, then 12.5 mg/hr over 90 min IV, n 58, 2 hrs, Spies 1994[42]",Beneficial
same,Beneficial effects,[17],Beneficial
same,Beneficial effects,"[18]; frail geriatric patients, knee extensor strength, plasma TNF, 1800 mg daily, n 44, 6 weeks, Hauer 2003[59]",Beneficial
same,Beneficial effects,"[18]; intense, intermittent exercise, reduced and oxidized GSH, 125 mg/kg/hr for 15 min, then 25 mg/kg/hr, n 8, Medved 2003[58]",Beneficial
same,Beneficial effects,"[18]; prolonged submaximal exercise, well trained individuals, performance, 125 mg/kg/hr for 15 min, then 25 mg/kg/20 min, Medved 2004[286]",Beneficial
same,Beneficial effects,[19],Beneficial
same,Beneficial effects,[20],Beneficial
same,Beneficial effects,[21],Beneficial
same,reduction on plaque attributable to NAC,"[22]; p < .001, 10% aqueous solution",25.56% reduction on plaque attributable to
same,Beneficial effects,"[22]; plaque indices, 10% aqueous solution of NAC buffered to pH 6.5, n 28",Beneficial
same,solubility relative to cystine,[23],much more soluble
